Measurements taken from patent US7012128B2, “Interaction between cyclin D1 and steroid receptor co-activators and uses thereof in assays” (TopoTarget UK Limited, priority 1998, dated 2006).

Tests used:
wild type ER = test: ERE-TATA-luciferase transactivation of wild type ER in COS-7 cells; assay type: cell-based; settings: COS-7, wild type ER, presence of ligand
Procedure: FIG. 1. Mapping of the region of cyclin D1 required for ER-mediated transactivation. • (A) The effect of cyclin D1 deletion mutants on ER activation in the presence of ligand. The cyclin D1 derivatives used in this study are shown in the left panel; right side of Figure represents the relative capacity of the mutants to potentiate ERE-dependent transcription. ER-negative COS-7 cells were transfected with expression vectors for wild type ER (200 ng), cyclin D1 or cyclin D1 mutants (2.5 μg), an internal control §-galactosidase plasmid (0.5 μg) and an ERE-TATA-luciferase reporter (3 μg). The effect on ER transactivation of wild type cyclin D1 was set to 100%. These studies were performed in three separate experiments and expressed as mean values with standard deviation less then […]. The alignment of leucine-rich motif of ER with D-type cyclins are shown on the bottom; the leucine-rich motif in cyclin D1 is indicated as a dark box. The identifiers for the sequences shown are as follows: Cyclin D1 (SEQ ID NO:11), Estrogen receptor (SEQ ID NO:12), the Cyclin D2 (SEQ ID NO:13), and the Cyclin D3 (SEQ ID NO:14). • (B) ER activation by D-type cyclins, cyclin D1 L254/255A point mutant (D1-LALA) and SRC-1 in the presence of ligand. COS-7 cells were transfected with D-type cyclin expression vectors, cyclin D1 Leucine-to-Alanine point mutant (D1-LALA) or SRC-1 expression vector together with wild type ER expression vector, an ERE-TATA-luciferase reporter plasmid and the internal control β-galactosidase construct. Data are expressed as relative luciferase activity compared with basal ERE-luciferase activity of wild type ER and are normalized for transfection efficiencies.
FIG. 3. Role of coactivators in cyclin D1—induced transactivation. • (A) Effect of a dominant negative form of SRC-1 (SRC1-DN) on ER transactivation. SRC1-DN encoding amino acids 1245-1441 of SRC-1 (1, 2.5 and 5 μg) was introduced by transient transfection together with wild type ER (200 ng) and was tested for its ability to modulate ERE-dependent transcription. • (B) Effect of SRCI-DN on SRC-1 and TIF 2 mediated ER transactivation. SRC-1 (3 μg) or TIF-2 (3 μg) were transfected with SRC1-DN (3 μg) and tested for ER transactivation. • (C) Effect of SRC1-DN on cyclin D1-induced transactivation of ER 1-535 mutant. Cyclin D1 was cotransfected with SRC1-DN (1, 2.5, 5 μg) and tested for its effect on an ER harboring a deletion of coactivator binding site in helix 12 (ER 1-535). • (D) Effect of SRC1-DN on cyclin D1-induced transactivation of ER L543/544A mutant. Cyclin D1 and SRC1-DN (1, 2.5, 5 gg) were transfected and tested for the activity of ER helix 12 point mutant (ER L543/544A). The transient transfections (A-C) were performed in COS-7 cells, which were maintained in DMEM with 10 nM ligand. The relative activity was calculated by normalizing to the internal control and was divided by luciferase activity of ER (mutant) in the presence of ligand. The transfection for each set of conditions were done at least in four independent experiments and expressed as average ±SD.
To study how cyclin D1 activates ER, cyclin D1 deletion mutants were tested for their effect on ER-transactivation. COS-7 cells were transfected with cyclin D1 mutants, together with ER and a luciferase reporter gene construct driven by a minimal TATA promoter linked to an estrogen response element (ERE). […] This part of the protein is not involved in CDK interaction and is poorly conserved among the different cyclins. […] To test the relevance of this leucine-rich domain of cyclin D1 in ER activation, a cyclin D1 mutant was constructed in which leucines 254 and 255 were mutated to alanines (D1 L254/255A). This mutation in cyclin D1 is similar to the mutation in ER (ER L543/544A) that interferes with coactivator binding to AF-2 (Danielian et al., 1992). […]

ER = target: T1, ER (Homo sapiens, UniProt P03372); test: ER activation, ERE-reporter gene, in MCF-7 cells; assay type: cell-based; design: T47D and MCF-7, which contain endogenous wild type ER; endogenous in cells; host or cells: MCF-7; T47D; settings: MCF-7, relative high levels of cyclin D1; 17β-estradiol enriched medium
T1 sequence (P03372 1-595): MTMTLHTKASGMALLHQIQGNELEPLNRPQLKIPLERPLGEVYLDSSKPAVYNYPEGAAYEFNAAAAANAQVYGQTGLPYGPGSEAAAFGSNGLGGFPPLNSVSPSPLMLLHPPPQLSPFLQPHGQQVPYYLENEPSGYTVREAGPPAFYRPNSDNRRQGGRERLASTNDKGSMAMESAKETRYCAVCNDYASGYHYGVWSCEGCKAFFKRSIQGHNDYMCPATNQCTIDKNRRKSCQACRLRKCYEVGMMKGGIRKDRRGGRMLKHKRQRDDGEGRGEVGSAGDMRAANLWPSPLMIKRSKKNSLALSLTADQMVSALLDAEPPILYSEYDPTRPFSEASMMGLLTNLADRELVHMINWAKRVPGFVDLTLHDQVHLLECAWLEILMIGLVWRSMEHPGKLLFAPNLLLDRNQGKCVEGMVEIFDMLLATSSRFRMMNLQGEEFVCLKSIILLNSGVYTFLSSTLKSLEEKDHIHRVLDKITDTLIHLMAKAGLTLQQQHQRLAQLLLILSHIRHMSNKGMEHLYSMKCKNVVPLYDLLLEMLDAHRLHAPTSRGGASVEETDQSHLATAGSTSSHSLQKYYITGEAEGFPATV
Description: The ER-containing T47D and MCF-7 breast cancer cells were maintained in 17β-estradiol enriched medium with 10%fetal calf serum after cotransfection with a cyclin D1 L254/255A mutant expression vector and an ERE-reporter gene for testing its effect on ER activation (left panel). ER transactivation in the absence of co-expression of the cyclin D1 mutant was set at 100%.
To get more insight in the role of cyclin D1 in ER transactivation in breast cancers with elevated levels of cyclin D1, we have tested the effect of the mutant cyclin D1 L254/255A on ER activation in two different breast cancer cell lines. This cyclin D1 mutant does bind to ER, but fails both to interact with SRC-1 as shown above and consequently fails to activate ER (FIG. 1B). Therefore, this mutant can act as a dominant negative in cyclin D1-mediated ER transactivation as it binds to ER and fails to recruit coactivators. We tested the effect of this cyclin D1 mutant on ER activation in two breast cancer cell lines, T47D and MCF-7, which contain endogenous wild type ER, but differ in their cyclin D1 protein levels (FIG. 6). […] In contrast, in MCF-7, which contain relative high levels of cyclin D1 (FIG. 6), the cyclin D1 mutant inhibited up to 50% of ER activity. Thus, this dominant negative cyclin D1 mutant preferentially interferes with ER activation in breast cancer cells that have high levels of cyclin D1 protein.

Cyclin D1-LALA: cyclin D1 mutant in which leucines 254 and 255 were mutated to alanines; dominant negative
ER transactivation capacity (wild type ER): virtually unable to activate wild type ER
inhibition of ER activity (ER): up to 50%
